Biological target: T1, Cyclooxygenase-1 (cyclooxygenase from ram seminal vesicles) (Ovis aries, UniProt P05979)
T1 construct: cyclooxygenase from ram seminal vesicles; from tissue; host or cells: ram seminal vesicles
T1 sequence (P05979 25-600): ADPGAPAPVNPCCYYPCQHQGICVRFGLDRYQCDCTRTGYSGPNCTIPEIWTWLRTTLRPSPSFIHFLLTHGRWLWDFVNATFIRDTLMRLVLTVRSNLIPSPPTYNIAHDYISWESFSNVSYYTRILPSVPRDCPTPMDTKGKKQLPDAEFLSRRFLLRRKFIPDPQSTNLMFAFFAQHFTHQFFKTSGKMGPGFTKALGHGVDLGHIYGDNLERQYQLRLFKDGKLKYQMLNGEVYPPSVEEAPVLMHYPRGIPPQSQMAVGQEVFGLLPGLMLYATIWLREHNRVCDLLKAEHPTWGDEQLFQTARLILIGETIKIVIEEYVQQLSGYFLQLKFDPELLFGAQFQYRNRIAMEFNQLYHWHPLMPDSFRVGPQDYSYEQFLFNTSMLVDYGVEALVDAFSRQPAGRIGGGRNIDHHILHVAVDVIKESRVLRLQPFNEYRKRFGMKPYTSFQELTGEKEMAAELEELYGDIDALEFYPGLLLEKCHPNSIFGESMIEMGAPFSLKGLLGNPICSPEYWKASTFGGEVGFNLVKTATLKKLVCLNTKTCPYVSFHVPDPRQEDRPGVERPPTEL
Assay: Cyclooxygenase-1 screen (COX-1)
Format: biochemical
Conditions: 300 μM
Description: (§1) The compounds of the invention were screened for their anti-inflammatory activity using a series of in vitro tests the details of which are given below. The activity of various compounds against 5-lipoxygenase, cycloxygenase-1, cycloxygenase-2 and lipid peroxidase was evaluated. Results of the screening procedures are included in TABLE I, and the activity against 5-lipoxygenase at a test concentration of 1 μM in Table II.
Cyclooxygenase-1 is involved in the formation of prostaglandins and thromboxane via the oxidative metabolism of arachidonic acid. Briefly, cyclooxygenase from ram seminal vesicles is incubated with arachidonic acid (100 μm) for 2 minutes at 37° C. in the presence or absence of test compounds according to the methods of A. T. Evans et al., Biochem. Pharm. 36:2035-2037(1987) and R. Boopathy et al., Biochem J. 239:371-377 (1968). The assay is terminated by the addition of trichioroacetic acid and cyclooxygenase activity is determined by reading the absorbance at 530 nm. […]

Structure (SMILES) | COX-1 percent inhibition [%]
O=C1OC(CCSc2nc(-c3ccccc3)c(-c3ccccc3)o2)C(O)=C1O (centres unmarked) [Example 24, 3,4-Dihydroxy-5-[2-(4,5-diphenyl-1,3-oxazole-2-thio)ethyl]-2(5H)-furanone] | 76
C[C@@]1(c2ccc(-c3ccccc3)cc2)OC(=O)C(O)=C1O [Example 11, (S)-(+)-5-[(1,1'-Biphenyl)-4-yl]-3,4-dihydroxy-5-methyl-2(5H)-furanone] | 34
CC1(c2ccc(-c3ccccc3)cc2)OC(=O)C(O)=C1O (racemic) [Example 2, 5-[(1,1'-Biphenyl)-4-yl]-3,4-dihydroxy-5-methyl-2(5H)-furanone] | 33
CC(C)Cc1ccc(C2(c3ccccc3)OC(=O)C(O)=C2O)cc1 (centres unmarked) [Example 10, 3,4-Dihydroxy-5-(4-isobutylphenyl)-5-phenyl-2(5H)-furanone] | 43
CCC/C=C\Cc1ccccc1/C=C\CCC1OC(=O)C(O)=C1O (centres unmarked) [Example 40] | 38
O=C1OC(CCC#Cc2ccccc2)C(O)=C1O (centres unmarked) [Example 27, 3,4-Dihydroxy-5-[(4-phenyl)-3-butynyl]-2(5H)-furanone] | 5

Biological target: T2, Cyclooxygenase-2 (prostaglandin H synthetase-2) from sheep placenta (Ovis aries, UniProt P79208)
T2 construct: cyclooxygenase-2 from sheep placenta; from tissue; host or cells: sheep placenta
T2 sequence (P79208 17-603): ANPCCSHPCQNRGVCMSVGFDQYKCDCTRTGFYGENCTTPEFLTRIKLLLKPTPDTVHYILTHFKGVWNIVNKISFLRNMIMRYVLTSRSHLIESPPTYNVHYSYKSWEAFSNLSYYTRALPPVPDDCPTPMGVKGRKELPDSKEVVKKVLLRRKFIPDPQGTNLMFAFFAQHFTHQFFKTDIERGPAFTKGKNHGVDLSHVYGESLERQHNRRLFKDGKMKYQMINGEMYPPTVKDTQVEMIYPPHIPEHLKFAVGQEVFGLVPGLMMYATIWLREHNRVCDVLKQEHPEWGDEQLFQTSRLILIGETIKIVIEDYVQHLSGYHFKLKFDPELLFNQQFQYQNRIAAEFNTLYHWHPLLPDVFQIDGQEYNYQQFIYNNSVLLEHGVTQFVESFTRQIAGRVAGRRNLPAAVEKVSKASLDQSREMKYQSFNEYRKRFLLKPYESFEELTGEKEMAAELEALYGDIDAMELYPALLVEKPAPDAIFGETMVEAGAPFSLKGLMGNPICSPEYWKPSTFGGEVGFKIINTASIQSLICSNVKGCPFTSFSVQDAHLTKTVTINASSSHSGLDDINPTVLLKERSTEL
Assay: Cyclooxygenase-2 screen (COX-2)
Format: biochemical
Conditions: read-out: COX-2 percent inhibition
Description: as §1
Cyclooxygenase-2, also known as prostaglandin H synthetase-2, catalyzes the rate- limiting step in the synthesis of inflammatory prostaglandins. In this reaction cyclooxygenase-2 catalyzes the oxygenation of unesterified precursors to form cyclic endoperoxide derivatives, including prostaglandin H. Briefly, cyclooxygenase-2 from sheep placenta, 14 μg/assay tube, is incubated with arachidonic acid (500 μM) for 1.5 minutes at 27° C. in the absence or presence of test compounds according to the methods of A. T. Evans, et al., Biochem Pharm. […] Res. Comm. […] Compounds are screened at 300 μM.

Structure (SMILES) | inhibition at 300 µM [%]
O=C1OC(CCSc2nc(-c3ccccc3)c(-c3ccccc3)o2)C(O)=C1O (centres unmarked) [Example 24, 3,4-Dihydroxy-5-[2-(4,5-diphenyl-1,3-oxazole-2-thio)ethyl]-2(5H)-furanone] | 68
C[C@@]1(c2ccc(-c3ccccc3)cc2)OC(=O)C(O)=C1O [Example 11, (S)-(+)-5-[(1,1'-Biphenyl)-4-yl]-3,4-dihydroxy-5-methyl-2(5H)-furanone] | 10
CC1(c2ccc(-c3ccccc3)cc2)OC(=O)C(O)=C1O (racemic) [Example 2, 5-[(1,1'-Biphenyl)-4-yl]-3,4-dihydroxy-5-methyl-2(5H)-furanone] | 22
CC(C)Cc1ccc(C2(c3ccccc3)OC(=O)C(O)=C2O)cc1 (centres unmarked) [Example 10, 3,4-Dihydroxy-5-(4-isobutylphenyl)-5-phenyl-2(5H)-furanone] | 34
CCC/C=C\Cc1ccccc1/C=C\CCC1OC(=O)C(O)=C1O (centres unmarked) [Example 40] | 25
O=C1OC(CCC#Cc2ccccc2)C(O)=C1O (centres unmarked) [Example 27, 3,4-Dihydroxy-5-[(4-phenyl)-3-butynyl]-2(5H)-furanone] | 20

Biological target: T3, 5-Lipoxygenase (crude enzyme preparation from rat basophilic leukemia cells, RBL-1) (Rattus norvegicus, UniProt P12527)
T3 construct: crude enzyme preparation from rat basophilic leukemia cells (RBL-1); endogenous in cells; host or cells: rat basophilic leukemia cells (RBL-1)
T3 sequence (P12527 1-673): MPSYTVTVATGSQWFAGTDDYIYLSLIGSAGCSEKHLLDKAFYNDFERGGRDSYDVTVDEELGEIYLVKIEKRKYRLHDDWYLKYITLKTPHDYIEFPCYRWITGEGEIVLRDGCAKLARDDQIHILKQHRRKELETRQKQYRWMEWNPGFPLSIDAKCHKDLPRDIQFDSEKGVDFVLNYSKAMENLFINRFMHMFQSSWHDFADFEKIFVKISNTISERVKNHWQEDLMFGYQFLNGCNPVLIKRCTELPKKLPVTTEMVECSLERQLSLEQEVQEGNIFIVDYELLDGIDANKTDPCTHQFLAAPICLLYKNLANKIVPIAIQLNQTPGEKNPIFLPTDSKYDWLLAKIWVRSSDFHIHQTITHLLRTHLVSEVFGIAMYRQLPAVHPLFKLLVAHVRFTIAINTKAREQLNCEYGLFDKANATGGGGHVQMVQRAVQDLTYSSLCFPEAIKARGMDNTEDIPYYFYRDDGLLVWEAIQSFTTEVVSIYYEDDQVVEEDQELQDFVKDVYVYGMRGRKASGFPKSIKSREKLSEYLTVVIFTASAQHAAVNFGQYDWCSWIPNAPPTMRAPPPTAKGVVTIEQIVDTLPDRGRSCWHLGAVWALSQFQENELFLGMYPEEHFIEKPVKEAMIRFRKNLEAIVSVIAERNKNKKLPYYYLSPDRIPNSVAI
Assay: 5-Lipoxygenase screen (5-LO), 5-HETE by RIA
Format: biochemical
Conditions: 30 μM; read-out: 5-LO percent inhibition
Description: as §1
5-Lipoxygenase catalyzes the oxidative metabolism of arachidonic acid to […] (5-HETE), the initial reaction leading to the formation of the leukotrienes. Briefly, the testing procedure utilizes a crude enzyme preparation from rat basophilic leukemia cells (RBL-1) according to the methods of T. Shimuzu et al. Pro. […] Test compounds are pre-incubated with the enzyme preparation for 5 minutes at room temperature and the reaction is initiated by the addition of arachidonic acid. Following an 8 minute incubation at room temperature, the reaction is terminated by the addition of citric acid and concentrations of 5-HETE are determined by RIA. Compounds are screened at 30 μM.

Structure (SMILES) | inhibition at 30 µM [%]
O=C1OC(CCSc2nc(-c3ccccc3)c(-c3ccccc3)o2)C(O)=C1O (centres unmarked) [Example 24, 3,4-Dihydroxy-5-[2-(4,5-diphenyl-1,3-oxazole-2-thio)ethyl]-2(5H)-furanone] | 113
C[C@@]1(c2ccc(-c3ccccc3)cc2)OC(=O)C(O)=C1O [Example 11, (S)-(+)-5-[(1,1'-Biphenyl)-4-yl]-3,4-dihydroxy-5-methyl-2(5H)-furanone] | 101
CC1(c2ccc(-c3ccccc3)cc2)OC(=O)C(O)=C1O (racemic) [Example 2, 5-[(1,1'-Biphenyl)-4-yl]-3,4-dihydroxy-5-methyl-2(5H)-furanone] | 107
CC(C)Cc1ccc(C2(c3ccccc3)OC(=O)C(O)=C2O)cc1 (centres unmarked) [Example 10, 3,4-Dihydroxy-5-(4-isobutylphenyl)-5-phenyl-2(5H)-furanone] | 106
CCC/C=C\Cc1ccccc1/C=C\CCC1OC(=O)C(O)=C1O (centres unmarked) [Example 40] | 99
O=C1OC(CCC#Cc2ccccc2)C(O)=C1O (centres unmarked) [Example 27, 3,4-Dihydroxy-5-[(4-phenyl)-3-butynyl]-2(5H)-furanone] | 42

Same assay, conditions: read-out: Percent inhibition of 5-LO; test conc. 1 μM (Table II)

Structure (SMILES) | inhibition at 1 µM [%]
O=C1OC(CCSc2nc(-c3ccccc3)c(-c3ccccc3)o2)C(O)=C1O (centres unmarked) [Example 24, 3,4-Dihydroxy-5-[2-(4,5-diphenyl-1,3-oxazole-2-thio)ethyl]-2(5H)-furanone] | 71
C[C@@]1(c2ccc(-c3ccccc3)cc2)OC(=O)C(O)=C1O [Example 11, (S)-(+)-5-[(1,1'-Biphenyl)-4-yl]-3,4-dihydroxy-5-methyl-2(5H)-furanone] | 59
CC1(c2ccc(-c3ccccc3)cc2)OC(=O)C(O)=C1O (racemic) [Example 2, 5-[(1,1'-Biphenyl)-4-yl]-3,4-dihydroxy-5-methyl-2(5H)-furanone] | 15
CC(C)Cc1ccc(C2(c3ccccc3)OC(=O)C(O)=C2O)cc1 (centres unmarked) [Example 10, 3,4-Dihydroxy-5-(4-isobutylphenyl)-5-phenyl-2(5H)-furanone] | 64

System: Lipid peroxidation (rat liver microsomes)
Assay: Lipid peroxidation screen (LPO), CCl4-induced, liver microsomes
Format: biochemical
Conditions: 300 μM
Description: as §1
Lipid peroxidation is a consequence of various stimuli, including reactive free radicals. Polyunsaturated fatty acids associated with plasma membranes are degraded due to enzymatic induction by reactive agents such as CCl4, leading to cellular damage. Briefly, microsomes are prepared from rat livers and the protein concentration is determined according to the method of D. Mansuy et al., Biochem. Biophys. Res. Comm. 135:1015-1021(1986). A reaction mixture consisting of 2 mg of the microsomal preparation, an NADPH generating system, 20 mM CCl4 and test compound are incubated for 12 minutes at 37° C. The reaction is terminated by the addition of a mixture of thiobarbituric acid and trichloroacetic acid. The absorbance is read at 535 nm and is proportional to the concentration of malondialdehyde. Compounds are screened at 300 μM.

Structure (SMILES) | LPO percent inhibition [%]
O=C1OC(CCSc2nc(-c3ccccc3)c(-c3ccccc3)o2)C(O)=C1O (centres unmarked) [Example 24, 3,4-Dihydroxy-5-[2-(4,5-diphenyl-1,3-oxazole-2-thio)ethyl]-2(5H)-furanone] | 78
C[C@@]1(c2ccc(-c3ccccc3)cc2)OC(=O)C(O)=C1O [Example 11, (S)-(+)-5-[(1,1'-Biphenyl)-4-yl]-3,4-dihydroxy-5-methyl-2(5H)-furanone] | 71
CC1(c2ccc(-c3ccccc3)cc2)OC(=O)C(O)=C1O (racemic) [Example 2, 5-[(1,1'-Biphenyl)-4-yl]-3,4-dihydroxy-5-methyl-2(5H)-furanone] | 78
CC(C)Cc1ccc(C2(c3ccccc3)OC(=O)C(O)=C2O)cc1 (centres unmarked) [Example 10, 3,4-Dihydroxy-5-(4-isobutylphenyl)-5-phenyl-2(5H)-furanone] | 89
CCC/C=C\Cc1ccccc1/C=C\CCC1OC(=O)C(O)=C1O (centres unmarked) [Example 40] | 65
O=C1OC(CCC#Cc2ccccc2)C(O)=C1O (centres unmarked) [Example 27, 3,4-Dihydroxy-5-[(4-phenyl)-3-butynyl]-2(5H)-furanone] | 59

System: Nuclear Factor-kappa B (NF-κB)
Assay: NF-κB lacZ (κB-Z) reporter assay in transfected Jurkat cells stimulated with A23187 and PMA
Format: cell-based, human
Conditions: Homo sapiens; 10 μM; κB-Z Jurkat cells, A23187 and PMA (Table III); read-out: NF-κB percent inhibition
Description: The human T lymphoid cell line Jurkat was transfected with a response element lacZ reporter in which transcription of the β-galactosidase gene is directed by the binding site for the NF-κB transcription factor. […] At the end of the incubation, the cells are spun down and resuspended in the buffer and FDG (fluorescein di-β-D-galactopyranoside) solution. The covered plates are further incubated in the dark for 16 hours at 25° C. […] Compounds were screened at 10 μM.

Structure (SMILES) | inhibition at 10 µM [%]
O=C1OC(CCSc2nc(-c3ccccc3)c(-c3ccccc3)o2)C(O)=C1O (centres unmarked) [Example 24, 3,4-Dihydroxy-5-[2-(4,5-diphenyl-1,3-oxazole-2-thio)ethyl]-2(5H)-furanone] | 44
C[C@@]1(c2ccc(-c3ccccc3)cc2)OC(=O)C(O)=C1O [Example 11, (S)-(+)-5-[(1,1'-Biphenyl)-4-yl]-3,4-dihydroxy-5-methyl-2(5H)-furanone] | 72
CC1(c2ccc(-c3ccccc3)cc2)OC(=O)C(O)=C1O (racemic) [Example 2, 5-[(1,1'-Biphenyl)-4-yl]-3,4-dihydroxy-5-methyl-2(5H)-furanone] | 90
CC(C)Cc1ccc(C2(c3ccccc3)OC(=O)C(O)=C2O)cc1 (centres unmarked) [Example 10, 3,4-Dihydroxy-5-(4-isobutylphenyl)-5-phenyl-2(5H)-furanone] | 16
